Data on seven molecules can be found in patent US20220323406A1, “METHODS AND COMPOSITIONS FOR DIFFERENTIATING STEM CELLS” (Massachusetts Institute of Technology, priority 2019, published 2022).

Entries after “also recorded” stand apart in the source; their conditions may differ. Where two headings read alike, the source gives them in different places.

Experiment [1] deals with ENR+CD organoids (ISC to Paneth cell differentiation). Nature of the experiment: Primary screen: CCh-stimulated lysozyme secretion LYZ.S, 2.5-D 384-well ENR+CD organoid differentiation. The settings on record: primary screen. Format: cell-based, mouse. The source says:
(§1) High-throughput screening.

For experiment [2] the test system is unchanged. In words: Primary screen: basal (non-stimulated) lysozyme secretion LYZ.NS, 2.5-D 384-well ENR+CD organoid differentiation. It is filed as cell-based, mouse. The settings on record: for Z.LYZ.NS / Dose.FC.LYZ.NS / Z.LYZ.NS (standard z score): primary screen; for Z.LYZ.NS: standard z score; for primary screen hit call (SSMD and z-scored FC cutoffs in both LYZ assays): LYZ.NS and LYZ.S, 0.08-10 uM, 6 days ENR+CD.
Excerpt: as §1

Experiment [3] has as its system ENR+CD organoids. As to conditions: for Z.CTG: standard z score.
Experiment [4] concerns 3D-cultured intestinal organoids (ENR or ENR+CD). Nature of the experiment: Lysozyme secretion assay (3D culture), normalized to ATP. Format: cell-based, mouse. As to conditions: 6-day ENR+CD differentiation; for Paneth cell differentiation (functional LYZ secretion), in combination with KPT-330: with KPT-330 (160 nM). The protocol: Lysozyme assay (3D culture). ISC-enriched organoids cultured in 3D Matrigel with ENRCV media were passaged to 48-well plate in 3D Matrigel with ENRCV. At day zero, media were replaced to ENR or ENRCD with or without indicated compounds, and media were replaced every other day. At day six, cells were washed twice with basal media and treated with carbamylcholine chloride (Sigma, C4382) for 3 hours. Media were collected and lysozyme activity was measured by EnzChek Lysozyme Assay Kit (ThermoFisher, E22013).
Lysozyme secretion assay. ISC-enriched organoids in 3D Matrigel culture were passaged to a 48- or 96-well plate and cultured with ENR or ENR+CD media containing DMSO or each drug for 6 days. DMSO- or drug-containing media were changed every other day. On day 6, cells were washed with basal media twice and treated with basal media with or without 10 μM carbamoylcholine chloride for 3 h in a CO2 incubator at 37° C. A part of the conditioned media was collected and used for lysozyme assay (Thermo, E-22013) following the manufacturer's instruction. The fluorescence was measured using excitation/emission of 485/530 nm. CellTiter-Glo 3D Reagent (Promega, G9681) was added afterward, and the cell culture plate was incubated on an orbital shaker at RT for 30 min to induce cell lysis and to stabilize the luminescent signal. The solution was replaced to a 96-well white microplate, and luminescent signals were measured by a microplate reader (infinite M200, Tecan). The standard curve was prepared by diluting recombinant ATP (Promega, P1132). For both assays, a polynomial cubic curve was fitted to a set of standard data, and each sample value was calculated on the Microsoft Excel.

Experiment [5] deals with ENR+CD organoids (ISC to Paneth cell differentiation). In words: Secondary (validation) screen: LYZ.NS basal lysozyme secretion, 2.5-D 384-well ENR+CD organoids. It is filed as cell-based, mouse. As to conditions: 6-day ENR+CD, vs ENR+CD+DMSO.
The test system is the same in experiment [6]. In words: Secondary (validation) screen: LYZ.S CCh-stimulated lysozyme secretion, 2.5-D 384-well ENR+CD organoids. It is filed as cell-based, mouse. As to conditions: 6-day ENR+CD, vs ENR+CD+DMSO.
The subject of experiment [7] is ENR+CD organoids. Nature of the experiment: Secondary (validation) screen: ATP (CTG) assay, 2.5-D 384-well ENR+CD organoids. Format: cell-based, mouse. As to conditions: 6-day ENR+CD, vs ENR+CD+DMSO.
Setting [8] is: dose 0.08 uM, FC vs plate median.
Setting [9] is: dose 0.40 uM, FC vs plate median.
The mark [10] stands for this setting: dose 2.00 uM, FC vs plate median.
Where [11] appears, read: dose 10.00 uM, FC vs plate median.
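Throughout, for Z.CTG (standard z score): compounds given at plating and again on day 3 over a 6-day differentiation from ENR+CV stem-cell-enriched precursors, ATP measured on day 6, plate median as control.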
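Throughout, for Z.CTG: compounds given at plating and again on day 3 over a 6-day differentiation from ENR+CV stem-cell-enriched precursors, ATP measured on day 6, plate median as control.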

Take `C[C@@H]1O[C@@H](O[C@H]2C[C@@H](O)[C@]3(CO)[C@H]4[C@H](O)C[C@]5(C)[C@@H](C6=CC(=O)OC6)CC[C@]5(O)[C@@H]4CC[C@]3(O)C2)[C@H](O)[C@H](O)[C@H]1O` [Ouabain]: the Dose.FC.LYZ.S worked out at 0.040 log2 fold change in experiment [1] (setting [8]), 0.035 log2 fold change in experiment [1] (setting [9]), 0.003 log2 fold change in experiment [1] (setting [10]) and 0.050 log2 fold change in experiment [1] (setting [11]). For the same molecule, the Z.LYZ.NS in experiment [2] (dose 0.08 uM) is on record as −0.025; in experiment [2] (dose 0.40 uM), 0.315; in experiment [2] (dose 2.00 uM) it was 0.092; in experiment [2] (dose 10.00 uM), 1.433. Further, the Dose.FC.LYZ.NS is −0.003 log2 fold change in experiment [2] (setting [8]), 0.036 log2 fold change in experiment [2] (setting [9]), 0.011 log2 fold change in experiment [2] (setting [10]) and 0.165 log2 fold change in experiment [2] (setting [11]). Further, the Dose.FC.CTG is reported as −0.288 log2 fold change in the experiment on ENR+CD organoids [3] (10 µM); 0.010 log2 fold change in the experiment on ENR+CD organoids [3] (primary screen, dose 0.08 uM, FC vs plate median); 0.122 log2 fold change with ENR+CD organoids [3] (primary screen, dose 0.40 uM, FC vs plate median); 0.080 log2 fold change in the experiment with ENR+CD organoids [3] (primary screen, dose 2.00 uM, FC vs plate median). For the same molecule, the Z.CTG with ENR+CD organoids [3] (primary screen, dose 0.08 uM) is on record as 0.023; in the experiment on ENR+CD organoids [3] (primary screen, dose 0.40 uM), 0.290; in the experiment with ENR+CD organoids [3] (primary screen, dose 2.00 uM), 0.190; with ENR+CD organoids [3] (primary screen, dose 10.00 uM), −0.688.
Consider `CC1=C(/C=C/C(=C/C=C/C(C)=C/C(=O)O)c2ccc(C)cc2)C(C)(C)CCC1` [SR11302], for which, in experiment [4], the “Paneth cell differentiation (functional LYZ secretion), compound alone” value (shortened to “Paneth cell differentiation … compound alone”) is given as “also decreases functional LYZ secretion” and the “Paneth cell differentiation (functional LYZ secretion), in combination with KPT-330” value (shortened to “Paneth cell differentiation … with KPT-330”) is “significantly decreases functional LYZ secretion”.
As for `CCc1c(C(=O)C(N)=O)c2c(OCC(=O)O)cccc2n1Cc1ccccc1` [Varespladib (LY315920), Varespladib, reference compound], the Dose.FC.LYZ.NS in experiment [5] (0.02 uM) is recorded as −0.091 log2 fold change; in experiment [5] (0.04 uM), 0.015 log2 fold change; in experiment [5] (0.08 uM), 0.090 log2 fold change; in experiment [5] ([…]), 0.156 log2 fold change; in experiment [2] (dose 0.08 uM), 0.176 log2 fold change; in experiment [2] (dose 0.40 uM), 0.197 log2 fold change. The Dose.FC.LYZ.NS in experiment [2] (dose 2.00 uM) is given as 0.164 log2 fold change; in experiment [2] (dose 10.00 uM), 0.074 log2 fold change. For the same molecule, the Dose.FC.LYZ.S in experiment [1] (dose 0.08 uM) is listed as 0.274 log2 fold change; in experiment [1] (dose 0.40 uM), 0.157 log2 fold change; in experiment [1] (dose 2.00 uM), 0.176 log2 fold change; in experiment [1] (dose 10.00 uM) it was 0.051 log2 fold change; in experiment [6] (0.02 uM) it was −0.138 log2 fold change; in experiment [6] (0.04 uM), −0.044 log2 fold change. Further, the Dose.FC.LYZ.S in experiment [6] (0.08 uM) was found to be 0.065 log2 fold change; in experiment [6] ([…]) it was 0.102 log2 fold change. For the same molecule, in experiment [2], the “primary screen hit call (SSMD and z-scored FC cutoffs in both LYZ assays)” value is given as “sole hit in their respective pathway”. Also, the “Z.LYZ.NS (standard z score)” value in experiment [2] (dose 0.08 uM) is listed as 1.533; in experiment [2] (dose 0.40 uM) it was 1.719; in experiment [2] (dose 2.00 uM), 1.430; in experiment [2] (dose 10.00 uM), 0.643. The Dose.FC.CTG in the experiment on ENR+CD organoids [7] (0.02 uM) came out at 0.027 log2 fold change; with ENR+CD organoids [7] (0.04 uM) it was 0.113 log2 fold change; in the experiment on ENR+CD organoids [7] (0.08 uM) it was 0.207 log2 fold change; in the experiment on ENR+CD organoids [7] ([…]), 0.148 log2 fold change; in the experiment on ENR+CD organoids [3] (primary screen, dose 0.08 uM) it was 0.428 log2 fold change; in the experiment with ENR+CD organoids [3] (primary screen, dose 0.40 uM), 0.362 log2 fold change. Also, the Dose.FC.CTG is 0.152 log2 fold change in the experiment on ENR+CD organoids [3] (primary screen, dose 2.00 uM) and 0.241 log2 fold change in the experiment with ENR+CD organoids [3] (primary screen, dose 10.00 uM). In addition, the “Z.CTG (standard z score)” value in the experiment on ENR+CD organoids [3] (primary screen, dose 0.08 uM) was determined as 1.022; in the experiment with ENR+CD organoids [3] (primary screen, dose 0.40 uM), 0.864; with ENR+CD organoids [3] (primary screen, dose 2.00 uM), 0.363; with ENR+CD organoids [3] (primary screen, dose 10.00 uM), 0.575.
Turning to `COc1cc2c(Nc3ccc(NC(=O)c4ccccc4)cc3)ncnc2cc1OCCCN1CCOCC1` [ZM447439, reference compound], the “Paneth cell differentiation … compound alone” value in experiment [4] was “did significantly increase Paneth cell differentiation”. Moreover, in experiment [2], the “primary screen hit call (SSMD and z-scored FC cutoffs in both LYZ assays)” value is recorded as “lower-effect size hit of the primary screen”.
Regarding `O=C(c1ccc(F)c(F)c1Nc1ccc(I)cc1F)N1CC(O)([C@@H]2CCCCN2)C1` [cobimetinib], in experiment [4], the “Paneth cell differentiation … compound alone” value is “did not significantly alter Paneth cell differentiation” and the “Paneth cell differentiation … with KPT-330” value is “differentiation was enhanced; also recorded: significantly enhance Paneth cell differentiation”.
On the same counts, the results for `Cc1ccc(C(=O)Cn2c3c(sc2=N)CCCC3)cc1` [pifithrin-α] are “neither P53 inhibitor altered Paneth cell differentiation” and “neither P53 inhibitor altered Paneth cell differentiation”.
As to `c1ccc2c(CCNc3ccc(Nc4ccncc4)cc3)c[nH]c2c1` [serdemetan], in experiment [4], the “Paneth cell differentiation … compound alone” value is recorded as “neither P53 inhibitor altered Paneth cell differentiation” and the “Paneth cell differentiation … with KPT-330” value was “neither P53 inhibitor altered Paneth cell differentiation”.
